Test results from PMC9967275, “Screening the Pathogen Box to Discover and Characterize New Cruzain and TbrCatL Inhibitors” (Pathogens, 2023).
Read-outs that look alike come from different tables or passages of the source.

Key:
[1] = target: T1, TbrCatL (Trypanosoma brucei rhodesiense, UniProt Q95PM0); assay: TbrCatL enzymatic inhibition assay (cleavage of fluorogenic substrate Z-FR-AMC); assay type: biochemical; details: for TbrCatL 0’ Inhibition / TbrCatL 10’ Inhibition: sheet "Screening results";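 on TbrCatL 0’ Inhibition: at 5 µM compound concentration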;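 on TbrCatL 10’ Inhibition: at 5 µM compound concentration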;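 on TbrCatL Inhibition 0’: at 5 µM compound concentration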;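 on TbrCatL Inhibition 10’: at 5 µM compound concentration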
T1 construct: Conor Caffrey (University of California San Diego)
Method: (§1) Allison Doak and Prof. Brian Shoichet (University of California San Francisco, San Francisco, CA, USA) and Prof. Conor Caffrey (University of California San Diego, San Diego, CA, USA) generously provided recombinant cruzain and TbrCatL, respectively. In vitro activity of proteases cruzain and TbrCatL was assayed as previously described. Briefly, enzyme activity was measured by monitoring the cleavage of the fluorogenic substrate […] (Z-FR-AMC) at 25 °C. Fluorescence was monitored at 340/440 nm (excitation/emission) over 5–7 min in a Synergy2 Biotek plate reader. […] DMSO and 1 μM E-64 were employed as negative and positive controls, respectively, in all assays. Two conditions were employed for both enzymes: 10′ pre-incubation of the enzyme in the presence of the compound (10′ inc) and no pre-incubation (0′). Reported values correspond to the mean and standard error of the mean (SEM) and all analyses were performed using GraphPad Prism 6.0.
(§2) For the initial screening, compounds were assayed at 5 μM. […] IC50 curves were obtained from a non-linear fit of at least seven distinct compound concentrations, in triplicate. Reported IC50 values are the mean and SEM of two independent measurements.

[2] = target: cruzain (Trypanosoma cruzi, UniProt P25779); assay: biochemical;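 on Cruzain 0’ Inhibition: at 5 µM compound concentration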;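 on Cruzain 10’ Inhibition: at 5 µM compound concentration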;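 on Cruzain Inhibition 0’: at 5 µM compound concentration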;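 on Cruzain Inhibition 10’: at 5 µM compound concentration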
Method: as §1, §2

[3] = 0’ (pre-incubation time), sheet "Screening results"
[4] = 10’ (pre-incubation time), sheet "Screening results"
[5] = 0’ (no pre-incubation), sheet Screening results
[6] = 10’ (pre-incubation), sheet Screening results
[7] = 0’ (pre-incubation time), Pathogen Box screening results
[8] = 10’ (pre-incubation time), Pathogen Box screening results

Chain of cruzain (P25779 123-337 limits assumed): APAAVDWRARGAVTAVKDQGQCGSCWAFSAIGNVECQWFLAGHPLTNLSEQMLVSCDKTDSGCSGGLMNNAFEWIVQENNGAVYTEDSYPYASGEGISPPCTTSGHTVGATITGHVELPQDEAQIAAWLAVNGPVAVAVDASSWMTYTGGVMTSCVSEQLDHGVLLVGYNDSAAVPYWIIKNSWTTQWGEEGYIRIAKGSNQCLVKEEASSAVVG
T1 sequence (Q95PM0 entry or part of it): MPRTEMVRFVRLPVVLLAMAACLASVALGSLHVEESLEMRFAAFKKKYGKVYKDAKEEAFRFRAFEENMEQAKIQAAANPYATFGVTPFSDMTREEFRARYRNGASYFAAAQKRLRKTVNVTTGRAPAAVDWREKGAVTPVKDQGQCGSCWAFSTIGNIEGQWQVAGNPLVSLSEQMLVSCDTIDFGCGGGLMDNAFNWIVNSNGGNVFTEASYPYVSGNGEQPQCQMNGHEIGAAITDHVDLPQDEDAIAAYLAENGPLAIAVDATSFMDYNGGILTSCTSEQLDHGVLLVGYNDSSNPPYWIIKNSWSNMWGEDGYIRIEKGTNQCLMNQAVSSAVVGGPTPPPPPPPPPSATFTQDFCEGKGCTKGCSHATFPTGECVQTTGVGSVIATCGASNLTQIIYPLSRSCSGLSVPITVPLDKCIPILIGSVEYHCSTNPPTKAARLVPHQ

SMILES	TbrCatL 0’ Inhibition ([1]; 0’ (pre-incubation time))	TbrCatL 10’ Inhibition ([1]; 10’ (pre-incubation time))	Cruzain 0’ Inhibition [2, 3]	Cruzain 10’ Inhibition [2, 4]	also measured
O=C(C1CCN(c2nnc(-n3cccc3)s2)CC1)N1CCC(Cc2ccccc2)CC1 [MMV676478]	2.2%	-8%	0.9%	2.5%	–
Cc1nnc(NCc2cccc(Cl)c2)c2ccccc12 [MMV676555]	–	–	–	–	TbrCatL Inhibition 0’ [1, 5]: 3%; TbrCatL Inhibition 10’ [1, 6]: -4.6%; Cruzain Inhibition 0’ [2, 5]: -1.4%; Cruzain Inhibition 10’ [2, 6]: 3.2%
O=C(Nc1ccc(F)c(-c2nc3ncc(-c4ccccc4)cc3[nH]2)c1)N1CCCC1 [MMV688372]	-5%	-11%	4%	4.3%	–
O=C(NCCN1CCCC1)c1cc(NCCN2CCOCC2)nc2ccc(Cl)cc12 [MMV634140]	–	–	–	–	inhibition at 5 µM ([1]; read-out: Inhibition at 5 µM (Mean ± SEM %) TbrCatL 0′): 11 ± 1%; inhibition at 5 µM ([1]; read-out: Inhibition at 5 µM (Mean ± SEM %) TbrCatL 10′ inc): 42 ± 3%; inhibition at 5 µM ([1]; read-out: TbrCatL 0’ Inhibition): 11%; inhibition at 5 µM ([1]; read-out: TbrCatL 10’ Inhibition): 42%; inhibition at 5 µM ([2]; read-out: Cruzain 0’ Inhibition, 0’ (pre-incubation time), sheet "Screening results"): 24%; inhibition at 5 µM ([2]; read-out: Cruzain 10’ Inhibition, 10’ (pre-incubation time), sheet "Screening results"): 31%; inhibition at 5 µM ([2]; read-out: Inhibition at 5 µM (Mean ± SEM %) Cruzain 0′, 5 µM, no pre-incubation, initial screening): 24 ± 1%; inhibition at 5 µM ([2]; read-out: Inhibition at 5 µM (Mean ± SEM %) Cruzain 10′ inc, 5 µM, 10′ pre-incubation, initial screening): 31 ± 3%; inhibition at 5 µM ([2]; read-out: Inhibition of cruzain or TbrCatL (either enzyme) in the initial screening, 5 µM, either cruzain or TbrCatL, with or without pre-incubation): ≥ 40%
COc1ccc(-c2cnc3ccc(N4CCCC4)nn23)cc1OC [MMV023985]	-7%	-1%	-3.2%	-13%	–
Cc1nn(Cc2ccccc2)c(Cl)c1C(=O)NC1CCCCCC1 [MMV063404]	–	–	–	–	TbrCatL Inhibition 0’ [1, 5]: 7.6%; TbrCatL Inhibition 10’ [1, 6]: 2%; Cruzain Inhibition 0’ [2, 5]: 11%; Cruzain Inhibition 10’ [2, 6]: 7.6%
Cc1nn(C)c(C)c1NS(=O)(=O)c1c(Cl)cc(-c2ccnc(N3CCNCC3)c2)cc1Cl [MMV688180]	-7%	28%	-4%	10%	–
Cc1ccc(-c2nc(CN(Cc3ccccn3)C(C)C)cs2)o1 [MMV1088520]	-6%	-24%	-17%	-15%	–
COC(=O)Nc1nc2ccc(C(=O)c3ccccc3)cc2[nH]1 [MMV003152]	–	–	–	–	TbrCatL Inhibition 0’ [1, 5]: 4.7%; TbrCatL Inhibition 10’ [1, 6]: -5.3%; Cruzain Inhibition 0’ [2, 5]: 3.3%; Cruzain Inhibition 10’ [2, 6]: -1.4%
CCN(CC)CCCN1CCN(C(=O)c2cccc(-c3noc(C(F)(F)F)n3)c2)CC1 [MMV022236]	7.4%	16%	7%	16%	–
Cc1cc(C2=NOC(c3cc(Cl)c(F)c(Cl)c3)(C(F)(F)F)C2)ccc1C(=O)NCc1ccc2c(c1)C(C)(C)OB2O (stereo not drawn) [MMV687776]	–	–	–	–	TbrCatL Inhibition 0’ [1, 5]: -0.1%; TbrCatL Inhibition 10’ [1, 6]: -4.5%; Cruzain Inhibition 0’ [2, 5]: 25%; Cruzain Inhibition 10’ [2, 6]: 17%
COc1cc(OC)cc(C(=O)NCC2Cc3cc(Cl)cc(-c4ccncc4)c3O2)c1 (stereo not drawn) [MMV007471]	0.4%	-2%	1.1%	6%	–
CNC(=O)CNc1nc(-c2ccccn2)nc2scc(-c3ccccc3)c12 [MMV1029203]	-10%	-7%	-6%	28%	–
NCCN(C(=O)c1ccc(Cl)cc1Cl)c1ccc(OCc2ccc(Cl)cc2)cc1 [MMV688371]	–	–	–	–	TbrCatL Inhibition 0’ [1, 5]: 6%; TbrCatL Inhibition 10’ [1, 6]: 1%; Cruzain Inhibition 0’ [2, 5]: 9%; Cruzain Inhibition 10’ [2, 6]: 12%
CCn1ncc2c(NC3CCOCC3)c(CNC(=O)c3ccnn3C)c(C)nc21 [MMV026356]	-6%	-7%	-0.3%	1.1%	–
O=C(Nc1ccccc1)c1ccc(-c2cc3ccncc3cc2OC2CCNCC2)s1 [MMV024035]	-3%	-5%	5%	-6.5%	–
C[C@H]1COc2c(N3CCN(C)CC3)c(F)cc3c(=O)c(C(=O)O)cn1c23 [MMV687798]	-4.6%	-1.6%	4.7%	6%	–
c1ccc(Oc2ccc(-c3cc(N4CCNCC4)[nH]n3)cc2)cc1 [MMV687706]	-6%	23%	2.4%	4%	–
COc1cccc(OC)c1C(=O)Nc1ccc(Cl)c(-c2nc3ccccc3s2)c1 [MMV676472]	4%	-2%	8%	14%	–

SMILES	TbrCatL 0’ Inhibition ([1]; 0’ (pre-incubation time))	TbrCatL 10’ Inhibition ([1]; 10’ (pre-incubation time))	Cruzain 0’ Inhibition [2, 3]	Cruzain 10’ Inhibition [2, 4]	also measured
Cc1ccc2[nH]c3c(NCCN(C)C)ncnc3c2c1 [MMV006372]	–	–	–	–	TbrCatL Inhibition 0’ [1, 5]: 10%; TbrCatL Inhibition 10’ [1, 6]: 14%; Cruzain Inhibition 0’ [2, 5]: 27%; Cruzain Inhibition 10’ [2, 6]: 21%
CC(=O)N(CCN(C(=O)c1ccc(F)cc1)c1ccccc1)c1ccccc1 [MMV676064]	-5%	-7%	-6%	3%	–
Cc1cc(=O)[nH]c(-n2nc(C)cc2C)n1 [MMV393995]	–	–	–	–	TbrCatL Inhibition 0’ [1, 7]: -13%; TbrCatL Inhibition 10’ [1, 8]: -7%; Cruzain Inhibition 0’ [2, 7]: -12%; Cruzain Inhibition 10’ [2, 8]: -0.3%
COc1ccc(C2CC(c3cccs3)=NN2C(=O)c2ccco2)cc1OC (stereo not drawn) [MMV019234]	–	–	–	–	TbrCatL Inhibition 0’ [1, 5]: 7%; TbrCatL Inhibition 10’ [1, 6]: 22%; Cruzain Inhibition 0’ [2, 5]: 6.6%; Cruzain Inhibition 10’ [2, 6]: 8%
COc1cccc(CC(=O)N2CCC(n3c(C)nc4ccc(F)cc43)CC2)c1 [MMV020081]	1.6%	18%	5%	10%	–
CC(C)(C)CN1C(=O)C(c2ccccc2)(c2ccccc2)N=C1N [MMV026550]	-5%	0.2%	0%	2.8%	–
FC(F)(F)c1cc(NCCc2ccccc2)nc(-c2ccccn2)n1 [MMV659010]	8%	9%	-2.5%	6%	–
Cc1cc(C)n(-c2ccc(NC(=O)C3CCN(Cc4cnc(C)s4)CC3)cc2)n1 [MMV007625]	1.5%	-1.8%	5%	1.6%	–
Cc1ccc(NC(=O)c2nc[nH]c2C(=O)Nc2nc3ccccc3[nH]2)c(C)c1 [MMV011903]	–	–	–	–	TbrCatL Inhibition 0’ [1, 5]: -18%; TbrCatL Inhibition 10’ [1, 6]: -43%; Cruzain Inhibition 0’ [2, 5]: -1.2%; Cruzain Inhibition 10’ [2, 6]: -15%
OCc1ccc(-c2cncc(Nc3cccc(Cl)c3)c2)cc1 [MMV026468]	1.7%	2.7%	0%	2.8%	–
Clc1ccc(-n2cc(COc3ccnc4ccccc34)nn2)cc1 [MMV675994]	-1.8%	11%	5%	14%	–
COC(=O)c1cccc2oc(-c3cccc(OC)c3NC(=O)c3cc(-c4ccccc4)on3)nc12 [MMV676186]	-3.7%	-5%	-3.5%	5.3%	–
Nc1c2c(nc3sc4c(c13)CCCC4)CCCC2 [MMV676588]	–	–	–	–	TbrCatL Inhibition 0’ [1, 5]: 14%; TbrCatL Inhibition 10’ [1, 6]: 2%; Cruzain Inhibition 0’ [2, 5]: 11%; Cruzain Inhibition 10’ [2, 6]: 13%
Nc1ncnc2n[nH]c(Cc3cccc4ccccc34)c12 [MMV688469]	-8%	-1.7%	-9%	4.5%	–
NS(=O)(=O)c1cncc(-c2ccc3nccc(-c4cn[nH]c4)c3n2)c1 [MMV024101]	6%	34%	7%	26%	–
c1ccc(Oc2ccc(-c3cc(N4CCOCC4)n[nH]3)cc2)cc1 [MMV045105]	2%	22%	1.3%	29%	–
Nc1ncnc2c1ncn2C[C@@H](O)[C@@H](O)C(=O)O [MMV689255]	–	–	–	–	TbrCatL Inhibition 0’ [1, 5]: 3.4%; TbrCatL Inhibition 10’ [1, 6]: -1.3%; Cruzain Inhibition 0’ [2, 5]: 18%; Cruzain Inhibition 10’ [2, 6]: 2%
CC[C@@H]([C@H](C)O)n1ncn(-c2ccc(N3CCN(c4ccc(OC[C@@H]5CO[C@@](Cn6cncn6)(c6ccc(F)cc6F)C5)cc4)CC3)cc2)c1=O [MMV688774]	–	–	–	–	TbrCatL Inhibition 0’ [1, 5]: 3.6%; TbrCatL Inhibition 10’ [1, 6]: 8%; Cruzain Inhibition 0’ [2, 5]: 9%; Cruzain Inhibition 10’ [2, 6]: 10%
